In patent publication US10168342B2, “Lipid probes and uses thereof” (THE SCRIPPS RESEARCH INSTITUTE, priority 2015, dated 2019) one finds Times observed data, which are given here for one compound.

Common to all, as to experiment: isoTOP-ABPP mapping of AEA-DA-modified peptides in Neuro2a cells
Format in all cases: cell-based

For test [1], the target named is T1, AEA-DA-modified peptides in Neuro2a cells (Mus musculus, UniProt P21619).
T1 construct: endogenous in cells; host or cells: Neuro2a
The following applies: AEA-DA-modified peptide LMNB2 P21619 137-160, SEQ ID NO 57; probe 100 μM, 12 replicates.

Test [2] concerns the target T2, AEA-DA-modified peptides in Neuro2a cells (Mus musculus, UniProt Q8CIV2).
T2 construct: endogenous in cells; host or cells: Neuro2a
The note with it: AEA-DA-modified peptide ORF61 Q8CIV2 245-263, SEQ ID NO 75; probe 100 μM, 12 replicates.

Test [3] deals with T3, AEA-DA-modified peptides in Neuro2a cells (Mus musculus, UniProt Q9D2R6).
T3 construct: endogenous in cells; host or cells: Neuro2a
T3 sequence (Q9D2R6 whole entry): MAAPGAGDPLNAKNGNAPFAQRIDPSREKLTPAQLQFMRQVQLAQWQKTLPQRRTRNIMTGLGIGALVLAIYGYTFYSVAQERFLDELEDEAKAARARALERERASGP
The note with it: AEA-DA-modified peptide CCDC56 Q9D2R6 84-94, SEQ ID NO 22; probe 100 μM, 12 replicates.

The target of test [4] is T4, AEA-DA-modified peptides in Neuro2a cells (Mus musculus, UniProt Q8R2Y8).
T4 construct: endogenous in cells; host or cells: Neuro2a
T4 sequence (Q8R2Y8 whole entry): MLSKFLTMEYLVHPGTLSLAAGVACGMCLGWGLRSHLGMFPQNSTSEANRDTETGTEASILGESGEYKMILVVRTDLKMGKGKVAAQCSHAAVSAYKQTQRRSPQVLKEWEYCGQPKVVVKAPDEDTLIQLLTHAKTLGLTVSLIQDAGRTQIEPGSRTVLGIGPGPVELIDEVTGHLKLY
The following applies: AEA-DA-modified peptide PTRH2 Q8R2Y8 35-69, SEQ ID NO 93; probe 100 μM, 12 replicates.

Test [5] addresses T5, AEA-DA-modified peptides in Neuro2a cells (Mus musculus, UniProt P42125).
T5 construct: endogenous in cells; host or cells: Neuro2a
The note with it: AEA-DA-modified peptide ECI1 P42125 276-284, SEQ ID NO 34; probe 100 μM, 12 replicates.

For test [6], the target named is T6, AEA-DA-modified peptides in Neuro2a cells (Mus musculus, UniProt P52825).
T6 construct: endogenous in cells; host or cells: Neuro2a
T6 sequence (P52825 26-658): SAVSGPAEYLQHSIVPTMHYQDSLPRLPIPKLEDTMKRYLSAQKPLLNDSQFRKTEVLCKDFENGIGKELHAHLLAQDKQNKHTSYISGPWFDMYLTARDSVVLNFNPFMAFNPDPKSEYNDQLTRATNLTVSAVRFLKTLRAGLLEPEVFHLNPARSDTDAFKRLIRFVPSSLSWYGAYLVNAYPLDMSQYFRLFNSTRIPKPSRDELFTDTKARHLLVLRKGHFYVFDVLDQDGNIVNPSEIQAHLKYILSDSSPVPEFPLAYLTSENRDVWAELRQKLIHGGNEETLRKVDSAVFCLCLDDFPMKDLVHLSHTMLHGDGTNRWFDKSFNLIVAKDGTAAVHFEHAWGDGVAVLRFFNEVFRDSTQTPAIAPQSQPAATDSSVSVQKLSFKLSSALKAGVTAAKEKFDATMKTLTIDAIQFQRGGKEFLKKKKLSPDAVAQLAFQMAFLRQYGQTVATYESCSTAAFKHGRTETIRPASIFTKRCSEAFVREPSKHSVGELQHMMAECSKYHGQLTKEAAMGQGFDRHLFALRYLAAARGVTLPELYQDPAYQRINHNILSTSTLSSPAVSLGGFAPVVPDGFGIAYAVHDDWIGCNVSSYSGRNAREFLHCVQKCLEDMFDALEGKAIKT
The following applies: AEA-DA-modified peptide CPT2 P52825 363-383, SEQ ID NO 26; probe 100 μM, 12 replicates.

Test [7] deals with T7, AEA-DA-modified peptides in Neuro2a cells (Mus musculus, UniProt P34884).
T7 construct: endogenous in cells; host or cells: Neuro2a
The following applies: AEA-DA-modified peptide MIF P34884 13-38, SEQ ID NO 60; probe 100 μM, 12 replicates.

The target in test [8] is T8, AEA-DA-modified peptides in Neuro2a cells (Mus musculus, UniProt P70333).
T8 construct: endogenous in cells; host or cells: Neuro2a
T8 sequence (P70333 whole entry): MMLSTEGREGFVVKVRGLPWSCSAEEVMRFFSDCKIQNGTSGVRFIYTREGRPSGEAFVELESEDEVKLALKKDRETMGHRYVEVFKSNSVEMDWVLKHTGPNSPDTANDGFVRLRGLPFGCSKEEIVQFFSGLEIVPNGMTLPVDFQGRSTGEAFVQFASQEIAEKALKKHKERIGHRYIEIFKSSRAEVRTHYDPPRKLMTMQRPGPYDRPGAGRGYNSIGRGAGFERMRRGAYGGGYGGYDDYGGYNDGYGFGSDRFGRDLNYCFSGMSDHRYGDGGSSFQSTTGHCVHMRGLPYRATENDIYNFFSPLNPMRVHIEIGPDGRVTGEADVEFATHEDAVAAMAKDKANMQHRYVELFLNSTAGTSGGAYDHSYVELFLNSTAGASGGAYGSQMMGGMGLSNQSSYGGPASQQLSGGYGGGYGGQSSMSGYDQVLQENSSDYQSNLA
The following applies: AEA-DA-modified peptide HNRNPH 2 P70333 50-69, SEQ ID NO 50; probe 100 μM, 12 replicates.

In test [9] the target is T9, AEA-DA-modified peptides in Neuro2a cells (Mus musculus, UniProt P53811).
T9 construct: endogenous in cells; host or cells: Neuro2a
T9 sequence (P53811 whole entry): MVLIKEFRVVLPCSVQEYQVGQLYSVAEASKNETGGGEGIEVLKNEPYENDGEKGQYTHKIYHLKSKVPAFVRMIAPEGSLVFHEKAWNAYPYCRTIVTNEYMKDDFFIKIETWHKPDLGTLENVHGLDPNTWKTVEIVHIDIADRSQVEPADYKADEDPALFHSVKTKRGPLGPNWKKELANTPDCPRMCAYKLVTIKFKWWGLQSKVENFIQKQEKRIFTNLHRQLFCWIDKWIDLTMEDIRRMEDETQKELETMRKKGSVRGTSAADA
The following applies: AEA-DA-modified peptide PITPNB P53811 32-45, SEQ ID NO 86; probe 100 μM, 12 replicates.

Test [10] concerns the target T10, AEA-DA-modified peptides in Neuro2a cells (Mus musculus, UniProt Q91WD5).
T10 construct: endogenous in cells; host or cells: Neuro2a
The following applies: AEA-DA-modified peptide NDUFS2 Q91WD5 36-57, SEQ ID NO 67; probe 100 μM, 12 replicates.

The target in test [11] is T11, AEA-DA-modified peptides in Neuro2a cells (Mus musculus, UniProt Q8BMG8).
T11 construct: endogenous in cells; host or cells: Neuro2a
T11 sequence (Q8BMG8 whole entry): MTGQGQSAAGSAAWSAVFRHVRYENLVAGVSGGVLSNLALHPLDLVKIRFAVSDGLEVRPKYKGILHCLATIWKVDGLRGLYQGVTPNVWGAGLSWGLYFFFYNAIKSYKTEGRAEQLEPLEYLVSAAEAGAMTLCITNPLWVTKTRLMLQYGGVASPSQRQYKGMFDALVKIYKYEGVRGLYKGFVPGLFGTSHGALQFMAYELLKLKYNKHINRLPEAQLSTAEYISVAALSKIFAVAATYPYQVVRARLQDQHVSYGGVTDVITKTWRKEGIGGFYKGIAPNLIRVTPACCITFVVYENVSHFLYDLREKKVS
The following applies: AEA-DA-modified peptide SLC25A32 Q8BMG8 115-146, SEQ ID NO 104; probe 100 μM, 12 replicates.

Test [12] deals with T12, AEA-DA-modified peptides in Neuro2a cells (Mus musculus, UniProt P58281).
T12 construct: endogenous in cells; host or cells: Neuro2a
T12 sequence (P58281 88-960): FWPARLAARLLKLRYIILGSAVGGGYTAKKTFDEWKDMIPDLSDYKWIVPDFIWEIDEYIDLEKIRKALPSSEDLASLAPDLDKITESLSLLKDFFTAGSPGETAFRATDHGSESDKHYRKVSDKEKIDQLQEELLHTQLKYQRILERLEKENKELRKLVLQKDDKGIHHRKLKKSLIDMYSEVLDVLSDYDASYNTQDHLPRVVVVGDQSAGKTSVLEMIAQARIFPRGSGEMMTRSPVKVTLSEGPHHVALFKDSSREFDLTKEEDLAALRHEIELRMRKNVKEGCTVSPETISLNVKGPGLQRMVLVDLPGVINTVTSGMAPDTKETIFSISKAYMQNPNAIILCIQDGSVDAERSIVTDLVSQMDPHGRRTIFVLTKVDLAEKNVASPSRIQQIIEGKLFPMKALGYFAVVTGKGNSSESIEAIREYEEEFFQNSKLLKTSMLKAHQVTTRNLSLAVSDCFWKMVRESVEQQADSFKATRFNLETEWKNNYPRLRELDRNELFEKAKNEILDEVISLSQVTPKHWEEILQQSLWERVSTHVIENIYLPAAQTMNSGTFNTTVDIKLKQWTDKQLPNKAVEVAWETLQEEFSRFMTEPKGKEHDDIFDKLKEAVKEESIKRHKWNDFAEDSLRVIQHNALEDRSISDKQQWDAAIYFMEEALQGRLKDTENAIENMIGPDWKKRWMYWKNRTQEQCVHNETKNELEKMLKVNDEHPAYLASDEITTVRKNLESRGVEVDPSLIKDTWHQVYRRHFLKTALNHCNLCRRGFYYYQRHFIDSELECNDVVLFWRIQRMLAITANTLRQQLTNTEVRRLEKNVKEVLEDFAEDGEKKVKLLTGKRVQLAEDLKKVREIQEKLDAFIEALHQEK
The note with it: AEA-DA-modified peptide OPA1 P58281 801-819, SEQ ID NO 74; probe 100 μM, 12 replicates.

T1 sequence (P21619 whole entry): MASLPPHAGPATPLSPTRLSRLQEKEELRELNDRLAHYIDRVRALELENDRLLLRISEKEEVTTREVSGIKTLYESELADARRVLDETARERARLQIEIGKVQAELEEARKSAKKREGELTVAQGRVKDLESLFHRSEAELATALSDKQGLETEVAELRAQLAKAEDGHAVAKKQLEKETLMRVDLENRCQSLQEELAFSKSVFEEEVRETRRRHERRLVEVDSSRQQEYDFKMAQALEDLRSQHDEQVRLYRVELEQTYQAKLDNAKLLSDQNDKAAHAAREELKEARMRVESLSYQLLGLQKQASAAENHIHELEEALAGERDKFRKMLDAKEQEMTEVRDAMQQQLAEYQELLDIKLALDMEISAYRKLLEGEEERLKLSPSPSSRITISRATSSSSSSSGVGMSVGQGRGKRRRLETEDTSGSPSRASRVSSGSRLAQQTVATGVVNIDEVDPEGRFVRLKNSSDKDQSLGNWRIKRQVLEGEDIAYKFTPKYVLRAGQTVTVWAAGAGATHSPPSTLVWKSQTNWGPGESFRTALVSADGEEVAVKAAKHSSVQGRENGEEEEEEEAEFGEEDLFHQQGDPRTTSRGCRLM
T10 sequence (Q91WD5 34-463): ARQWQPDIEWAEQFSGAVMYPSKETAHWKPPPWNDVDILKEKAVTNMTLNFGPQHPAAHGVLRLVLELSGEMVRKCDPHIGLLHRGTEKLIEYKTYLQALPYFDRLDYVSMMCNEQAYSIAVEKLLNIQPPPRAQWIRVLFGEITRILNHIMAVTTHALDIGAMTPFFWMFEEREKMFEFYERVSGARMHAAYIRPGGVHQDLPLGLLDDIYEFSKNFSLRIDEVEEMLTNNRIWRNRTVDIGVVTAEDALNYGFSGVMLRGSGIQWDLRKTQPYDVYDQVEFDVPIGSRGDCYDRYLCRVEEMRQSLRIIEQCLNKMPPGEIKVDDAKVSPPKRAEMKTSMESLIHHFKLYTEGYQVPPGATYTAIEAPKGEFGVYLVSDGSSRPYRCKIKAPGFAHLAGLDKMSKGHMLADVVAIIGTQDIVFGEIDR
T2 sequence (Q8CIV2 whole entry): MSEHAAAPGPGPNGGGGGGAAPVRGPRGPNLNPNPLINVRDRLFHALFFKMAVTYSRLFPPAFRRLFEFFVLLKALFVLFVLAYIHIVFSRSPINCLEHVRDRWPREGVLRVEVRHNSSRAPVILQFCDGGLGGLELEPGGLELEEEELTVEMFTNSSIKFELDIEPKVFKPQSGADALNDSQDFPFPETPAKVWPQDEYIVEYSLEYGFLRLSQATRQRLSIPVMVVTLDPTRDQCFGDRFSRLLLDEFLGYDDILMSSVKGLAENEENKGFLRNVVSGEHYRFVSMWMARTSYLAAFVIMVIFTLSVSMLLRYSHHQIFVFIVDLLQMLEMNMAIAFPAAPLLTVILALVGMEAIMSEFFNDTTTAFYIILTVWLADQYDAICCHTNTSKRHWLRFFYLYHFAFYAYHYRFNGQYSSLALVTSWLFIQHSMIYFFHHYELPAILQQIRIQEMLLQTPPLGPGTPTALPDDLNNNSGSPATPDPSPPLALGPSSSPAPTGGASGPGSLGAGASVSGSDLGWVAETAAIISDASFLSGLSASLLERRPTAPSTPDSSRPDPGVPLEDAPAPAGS
T5 sequence (P42125 29-289): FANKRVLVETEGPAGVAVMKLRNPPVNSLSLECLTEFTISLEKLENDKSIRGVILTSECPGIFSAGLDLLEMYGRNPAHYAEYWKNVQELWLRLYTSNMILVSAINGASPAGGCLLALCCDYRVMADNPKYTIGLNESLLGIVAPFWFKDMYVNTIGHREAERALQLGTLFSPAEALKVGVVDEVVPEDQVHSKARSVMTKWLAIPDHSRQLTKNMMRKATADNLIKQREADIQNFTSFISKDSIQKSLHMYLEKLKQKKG

Consider `C#CCCCC1(CC/C=C\C/C=C\C/C=C\CCCC(=O)NCCO)N=N1` [AEA-DA, (5Z,8Z,11Z)-N-(2-hydroxyethyl)-14-(3-(pent-4-yn-1-yl)-3H-diazirin-3-yl)tetradeca-5,8,11-trienamide], for which the Times observed in test [1] was 5; in [2], 4; in [3], 2; in test [4], 2; in test [5], 2; in test [6], 6. Further, the Times observed in test [7] was determined as 4; in test [8] it was 9; in test [9] it was 4; in [10], 3; in test [11], 6; in [12], 2.
